Experiments:
BCL6 [1] = biological target: T1, BCL6 (Homo sapiens, UniProt P41182); assay: BCL6 degradation immunoblot in VAL cells; format: cell-based
T1 construct: endogenous in cells; host or cells: VAL cells
Experimental: (§1) Inclusive of Examples 8-14, VAL cells were seeded in 6-well plates at 1×10^6 cells/well and treated with indicated concentration and time point for the indicated compounds. Total protein was extracted from cells using the RIPA buffer (Abcam) supplemented with the Halt Protease Inhibitor Cocktail (Millipore-Sigma). Samples were loaded to Invitrogen Bolt Bis -Tris Plus gels (ThermoFisher Scientific) and transferred to Invitrolon PVDF membranes (ThermoFisher Scientific) using the Invitrogen Bolt wet-gel Transfer Device. Immunodetection was performed with standard techniques. The following primary and secondary antibodies were used: anti-BCL6, β-actin, H3 (Cell Signaling Technology), and IRDye secondary antibodies at the concentration recommended by the manufacturer.
VAL cells were treated with compounds at serial concentrations of 0.1 μM, 1.0 μM, and 10 μM for 4 hours.
VAL cells were treated with 1 at serial concentrations of 0.001 μM, 0.010 μM, 0.100 μM, 1.0 μM, and 10 μM for 4 hours.
VAL cells were treated with 5 at serial concentrations of 0.001 μM, 0.010 μM, 0.100 μM, 1.0 μM, and 10 μM for 4 hours.
VAL cells were treated with 1 at 0.1 μM for 1, 2, 4, 8, and 24 hours.
VAL cells were treated with 6 at serial concentrations of 0.1 μM, 0.3 μM, 1.0 μM, 3.0 μM and 10 μM for 4 hours.

BCL6 [2] = biological target: T1, BCL6; assay: BCL6 degradation immunoblot in DB cells; format: cell-based; conditions: tested at 0.1, 1.0, 10 μM for 4 hours, compared to BI-3812 and BI-3802
Experimental: as §1
DB cells were treated with compounds at serial concentrations of 0.1 μM, 1.0 μM, and 10 μM for 4 hours.

[3] = tested at 0.001, 0.010, 0.100, 1.0, 10 μM for 4 hours
[4] = tested at 0.1, 1.0, 10 μM for 4 hours, compared to BI-3812 and BI-3802

concentration at which compound degrades BCL6 (immunoblot) (BCL6 [1]; [3]) | concentration at which compound degrades BCL6 (immunoblot) (BCL6 [1]; [4]) | concentration at which compound degrades BCL6 (immunoblot) (BCL6 [2]) | time in which BCL6 is degraded (immunoblot) (BCL6 [1]; 0.1 μM (100 nM), time points 1, 2, 4, 8, 24 hours) | concentration at which compound degrades BCL6 (immunoblot) (BCL6 [1]; tested at 0.1, 0.3, 1.0, 3.0, 10 μM for 4 hours) | SMILES
10 nM | 100 nM | 1000 nM | – | – | CNC(=O)COc1cc2cc(Nc3nc(N4CCC(NC(=O)CCCCCCCCCCCNc5cccc6c5C(=O)N(C5CCC(=O)NC5=O)C6=O)CC4)ncc3Cl)cc(OC)c2n(C)c1=O (centres unmarked) [compound 5, N-(1-(5-chloro-4-((8-methoxy-1-methyl-3-(2-(methylamino)-2-oxoethoxy)-2-oxo-1,2-dihydroquinolin-6-yl)amino)pyrimidin-2-yl)piperidin-4-yl)-12-((2-(2,6-dioxopiperidin-3-yl)-1,3-dioxoisoindolin-4-yl)amino)dodecanamide]
– | 100 nM | 100 nM | – | – | CNC(=O)COc1cc2cc(Nc3nc(N4CCC(C(=O)NCCCCNc5cccc6c5C(=O)N(C5CCC(=O)NC5=O)C6=O)CC4)ncc3Cl)cc(OC)c2n(C)c1=O (centres unmarked) [compound 3, 1-(5-chloro-4-((8-methoxy-1-methyl-3-(2-(methylamino)-2-oxoethoxy)-2-oxo-1,2-dihydroquinolin-6-yl)amino)pyrimidin-2-v1)-N-(4-((2-(2,6-dioxopiperidin-3-yl)-1,3-dioxoisoindolin-4-yl)amino)butyl)piperidine-4-carboxamide]
– | 100 nM | 1000 nM | – | – | CNC(=O)COc1cc2cc(Nc3nc(N4CCC(C(=O)NCCOCCNc5cccc6c5C(=O)N(C5CCC(=O)NC5=O)C6=O)CC4)ncc3Cl)cc(OC)c2n(C)c1=O (centres unmarked) [compound 4, 1-(5-chloro-4-((8-methoxy-1-methyl-3-(2-(methylamino)-2-oxoethoxy)-2-oxo-1,2-dihydroquinolin-6-yl)amino)pyrimidin-2-vl)-N-(2-(2-((2-(2,6-dioxopiperidin-3-yl)-1,3-dioxoisoindolin-4-yl)amino)ethoxy)ethyl)piperidine-4-carboxamide]
1.0 nM | 100 nM | – | less than 1 hour | – | CNC(=O)COc1cc2cc(Nc3nc(N4CCC(C(=O)NCCCCCCCCNc5cccc6c5C(=O)N(C5CCC(=O)NC5=O)C6=O)CC4)ncc3Cl)cc(OC)c2n(C)c1=O (centres unmarked) [compound 1, 1-(5-chloro-4-((8-methoxy-1-methyl-3-(2-(methylamino)-2-oxoethoxy)-2-oxo-1,2-dihydroquinolin-6-yl)amino)pyrimidin-2-yl)-N-(8-((2-(2,6-dioxopiperidin-3-yl)-1,3-dioxoisoindolin-4-yl)amino)octyl)piperidine-4-carboxamide]
– | – | – | – | 300 nM | CNC(=O)COc1cc2cc(Nc3nc(N4CCC(C(=O)NCCCCCCNC(=O)COc5cccc6c5C(=O)N(C5CCC(=O)NC5=O)C6=O)CC4)ncc3Cl)cc(OC)c2n(C)c1=O (centres unmarked) [compound 6, 1-(5-chloro-4-((8-methoxy-1-methyl-3-(2-(methylamino)-2-oxoethoxy)-2-oxo-1,2-dihydroquinolin-6-yl)amino)pyrimidin-2-vl)-N-(6-(2-((2-(2,6-dioxopiperidin-3-yl)-1,3-dioxoisoindolin-4-yl)oxy)acetamido)hexyl)piperidine-4-carboxamide]
